This data set has as its system CCRIS mutagenicity, Ames/micronucleus/aberration tests. Kind of data set: CCRIS mutagenicity studies.
Where [1] appears, read: Test System: AMES SALMONELLA TYPHIMURIUM, Strain/Indicator: TA98, Metabolic Activation: NONE, Method: PREINCUBATION
Setting [2] is: Test System: AMES SALMONELLA TYPHIMURIUM, Strain/Indicator: TA98, Metabolic Activation: NONE, Method: STANDARD PLATE.
Where [3] appears, read: Test System: AMES SALMONELLA TYPHIMURIUM, Strain/Indicator: TA100, Metabolic Activation: NONE, Method: PREINCUBATION
Setting [4] is: Test System: AMES SALMONELLA TYPHIMURIUM, Strain/Indicator: TA100, Metabolic Activation: NONE, Method: STANDARD PLATE.
[5] abbreviates: Test System: AMES SALMONELLA TYPHIMURIUM, Strain/Indicator: TA100, Metabolic Activation: RAT, LIVER, S-9, AROCLOR 1254, Method: STANDARD PLATE.

Activity calls are given as the source filed them. The rule behind the calls is not given here.

Turning to `O=[N+]([O-])c1ccc2c(c1)oc1ccccc12`, the mutagenic call is “active; positive” (Test System: AMES SALMONELLA TYPHIMURIUM, Strain/Indicator: TA98(1,8-DNP6), Metabolic Activation: NONE, Method: PREINCUBATION); “active; positive” (Test System: AMES SALMONELLA TYPHIMURIUM, Strain/Indicator: TA98(1,8-DNP6), Metabolic Activation: NONE, Method: SUSPENSION); “active; positive” (Test System: AMES SALMONELLA TYPHIMURIUM, Strain/Indicator: TA98(1,8-DNP6), Metabolic Activation: RAT, LIVER, S-9, PCB (5%), Method: PREINCUBATION); “active; positive” (Test System: AMES SALMONELLA TYPHIMURIUM, Strain/Indicator: TA98(NR), Metabolic Activation: NONE, Method: PREINCUBATION); “active; positive” (Test System: AMES SALMONELLA TYPHIMURIUM, Strain/Indicator: TA98(NR), Metabolic Activation: NONE, Method: SUSPENSION); “active; positive” (Test System: AMES SALMONELLA TYPHIMURIUM, Strain/Indicator: TA98(NR), Metabolic Activation: RAT, LIVER, S-9 (10%), Method: PREINCUBATION). The mutagenic call is “active; positive” (Test System: AMES SALMONELLA TYPHIMURIUM, Strain/Indicator: TA98(NR), Metabolic Activation: RAT, LIVER, S-9, 3-METHYLCHOLANTHRENE (10%), Method: PREINCUBATION); “active; positive” (Test System: AMES SALMONELLA TYPHIMURIUM, Strain/Indicator: TA98(NR), Metabolic Activation: RAT, LIVER, S-9, BETA-NAPHTHOFLAVONE (10%), Method: PREINCUBATION); “active; positive” (Test System: AMES SALMONELLA TYPHIMURIUM, Strain/Indicator: TA98(NR), Metabolic Activation: RAT, LIVER, S-9, PCB (5%), Method: PREINCUBATION); “active; positive” (Test System: AMES SALMONELLA TYPHIMURIUM, Strain/Indicator: TA98(NR), Metabolic Activation: RAT, LIVER, S-9, PCB (10%), Method: PREINCUBATION); “active; positive” (Test System: AMES SALMONELLA TYPHIMURIUM, Strain/Indicator: TA98(NR), Metabolic Activation: RAT, LIVER, S-9, PHENOBARBITAL (10%), Method: PREINCUBATION); “active; positive” under setting [1]. The mutagenic call is “active; positive” under setting [2]; “active; positive” (Test System: AMES SALMONELLA TYPHIMURIUM, Strain/Indicator: TA98, Metabolic Activation: NONE, Method: SUSPENSION); “active; positive” (Test System: AMES SALMONELLA TYPHIMURIUM, Strain/Indicator: TA98, Metabolic Activation: RAT, LIVER, S-9, PCB (5%), Method: PREINCUBATION); “active; positive” (Test System: AMES SALMONELLA TYPHIMURIUM, Strain/Indicator: TA98, Metabolic Activation: RAT, LIVER, S-9, PCB, Method: SUSPENSION); “active; positive” (Test System: AMES SALMONELLA TYPHIMURIUM, Strain/Indicator: TA98, Metabolic Activation: S-9, PHENOBARBITAL AND 5,6-BENZOFLAVONE, Method: STANDARD PLATE); “inactive; negative” under setting [3]. The mutagenic call under setting [4] is “active; positive”; the mutagenic call (Test System: AMES SALMONELLA TYPHIMURIUM, Strain/Indicator: TA100, Metabolic Activation: NONE, Method: SUSPENSION) is “active; positive”; the mutagenic call (Test System: AMES SALMONELLA TYPHIMURIUM, Strain/Indicator: TA100, Metabolic Activation: RAT, LIVER, S-9, PCB (5%), Method: PREINCUBATION) was “inactive; negative”; the mutagenic call (Test System: AMES SALMONELLA TYPHIMURIUM, Strain/Indicator: TA100, Metabolic Activation: RAT, LIVER, S-9, PCB, Method: SUSPENSION) was “inactive; negative”; the mutagenic call (Test System: AMES SALMONELLA TYPHIMURIUM, Strain/Indicator: TA100, Metabolic Activation: S-9, PHENOBARBITAL AND 5,6-BENZOFLAVONE, Method: STANDARD PLATE) was “active; positive”.
On to `Oc1cccc2c1-c1cc3cccc4ccc5ccc-2c1c5c43`, for which the mutagenic call under setting [5] is “active; positive”.
For the compound `O=C1c2ccccc2C(=O)c2c1cc(O)c(C(=O)O)c2O`, the mutagenic call runs as follows: under setting [1], “inactive; negative”; (Test System: AMES SALMONELLA TYPHIMURIUM, Strain/Indicator: TA98, Metabolic Activation: RAT, LIVER, S-9, PCB, Method: PREINCUBATION) “inactive; negative”; under setting [3], “inactive; negative”; (Test System: AMES SALMONELLA TYPHIMURIUM, Strain/Indicator: TA100, Metabolic Activation: RAT, LIVER, S-9, PCB, Method: PREINCUBATION) “inactive; negative”.
Consider `N[C@@H](CCC(=O)N(CC(=O)O)C(=O)[C@@H](N)CSCCCl)C(=O)O`, for which the mutagenic call under setting [4] was “active; positive”.
As for `c1ccc(-c2nc(-c3ccccc3)c(-c3ccccc3)[nH]2)cc1`, the mutagenic call is, setting by setting: under setting [2], “active; positive”; (Test System: AMES SALMONELLA TYPHIMURIUM, Strain/Indicator: TA98, Metabolic Activation: RAT LIVER S-9, 3-METHYLCHOLANTHRENE, SODIUM PHENOBARBITAL, Method: STANDARD PLATE) “inactive; negative”; under setting [4], “active; positive”; (Test System: AMES SALMONELLA TYPHIMURIUM, Strain/Indicator: TA100, Metabolic Activation: RAT LIVER S-9, 3-METHYLCHOLANTHRENE, SODIUM PHENOBARBITAL, Method: STANDARD PLATE) “inactive; negative”.
On to `O=c1[nH]cnc2[nH]ncc12`, for which the mutagenic call runs as follows: (Test System: AMES SALMONELLA TYPHIMURIUM, Strain/Indicator: TA98, Metabolic Activation: HAMSTER, LIVER, S-9, AROCLOR 1254, Method: STANDARD PLATE) “inactive; negative”; under setting [2], “inactive; negative”; (Test System: AMES SALMONELLA TYPHIMURIUM, Strain/Indicator: TA98, Metabolic Activation: RAT, LIVER, S-9, AROCLOR 1254, Method: STANDARD PLATE) “inactive; negative”; (Test System: AMES SALMONELLA TYPHIMURIUM, Strain/Indicator: TA100, Metabolic Activation: HAMSTER, LIVER, S-9, AROCLOR 1254, Method: STANDARD PLATE) “inactive; negative”; under setting [4], “inactive; negative”; under setting [5], “inactive; negative”. The mutagenic call (Test System: AMES SALMONELLA TYPHIMURIUM, Strain/Indicator: TA1535, Metabolic Activation: HAMSTER, LIVER, S-9, AROCLOR 1254, Method: STANDARD PLATE) is “inactive; negative”; the mutagenic call (Test System: AMES SALMONELLA TYPHIMURIUM, Strain/Indicator: TA1535, Metabolic Activation: NONE, Method: STANDARD PLATE) was “inactive; negative”; the mutagenic call (Test System: AMES SALMONELLA TYPHIMURIUM, Strain/Indicator: TA1535, Metabolic Activation: RAT, LIVER, S-9, AROCLOR 1254, Method: STANDARD PLATE) was “inactive; negative”; the mutagenic call (Test System: AMES SALMONELLA TYPHIMURIUM, Strain/Indicator: TA1537, Metabolic Activation: HAMSTER, LIVER, S-9, AROCLOR 1254, Method: STANDARD PLATE) was “inactive; negative”; the mutagenic call (Test System: AMES SALMONELLA TYPHIMURIUM, Strain/Indicator: TA1537, Metabolic Activation: NONE, Method: STANDARD PLATE) is “inactive; negative”; the mutagenic call (Test System: AMES SALMONELLA TYPHIMURIUM, Strain/Indicator: TA1537, Metabolic Activation: RAT, LIVER, S-9, AROCLOR 1254, Method: STANDARD PLATE) was “inactive; negative”. The mutagenic call runs as follows: (Test System: AMES SALMONELLA TYPHIMURIUM, Strain/Indicator: TA1538, Metabolic Activation: HAMSTER, LIVER, S-9, AROCLOR 1254, Method: STANDARD PLATE) “inactive; negative”; (Test System: AMES SALMONELLA TYPHIMURIUM, Strain/Indicator: TA1538, Metabolic Activation: NONE, Method: STANDARD PLATE) “inactive; negative”; (Test System: AMES SALMONELLA TYPHIMURIUM, Strain/Indicator: TA1538, Metabolic Activation: RAT, LIVER, S-9, AROCLOR 1254, Method: STANDARD PLATE) “inactive; negative”; (Test System: MOUSE LYMPHOMA, Strain/Indicator: L5178Y (TK+/TK-), Metabolic Activation: NONE, Method: SUSPENSION/PLATE) “inactive; negative. reevaluation of results: negative”; (Test System: MOUSE LYMPHOMA, Strain/Indicator: L5178Y (TK+/TK-), Metabolic Activation: RAT, LIVER, S-9, AROCLOR 1254, Method: SUSPENSION/PLATE) “inactive; negative. reevaluation of results: negative”.

These data come from PubChem BioAssay AID1259407 (Chemical Carcinogenesis Research Information System (CCRIS), 2018).
